# According to article PMC12827894, “Structure-guided design of picomolar-level macrocyclic TRPC5 channel inhibitors with antidepressant activity” (Acta Pharmaceutica Sinica. B, 2025):
# Read-outs that look alike come from different tables or passages of the source.
# Assays:
# [1] = biological target: T1, ACHE (Homo sapiens, UniProt P22303); assay: biochemical; settings: 10 μmol/L, read-out: Antagonist JDIC-127 @10 μmol/L
# T1 construct: purchased ICE Bioscience ICESTP™ SafetyOne44 Panel
# [2] = biological target: T2, TRPC5 (Homo sapiens, UniProt Q9UL62); assay: Whole-cell patch-clamp, TRPC5, Ca2+-activated condition; type: cell-based; settings: read-out: IC50, TRPC5, endogenous Ca2+-evoked activation
# T2 sequence (Q9UL62 1-973): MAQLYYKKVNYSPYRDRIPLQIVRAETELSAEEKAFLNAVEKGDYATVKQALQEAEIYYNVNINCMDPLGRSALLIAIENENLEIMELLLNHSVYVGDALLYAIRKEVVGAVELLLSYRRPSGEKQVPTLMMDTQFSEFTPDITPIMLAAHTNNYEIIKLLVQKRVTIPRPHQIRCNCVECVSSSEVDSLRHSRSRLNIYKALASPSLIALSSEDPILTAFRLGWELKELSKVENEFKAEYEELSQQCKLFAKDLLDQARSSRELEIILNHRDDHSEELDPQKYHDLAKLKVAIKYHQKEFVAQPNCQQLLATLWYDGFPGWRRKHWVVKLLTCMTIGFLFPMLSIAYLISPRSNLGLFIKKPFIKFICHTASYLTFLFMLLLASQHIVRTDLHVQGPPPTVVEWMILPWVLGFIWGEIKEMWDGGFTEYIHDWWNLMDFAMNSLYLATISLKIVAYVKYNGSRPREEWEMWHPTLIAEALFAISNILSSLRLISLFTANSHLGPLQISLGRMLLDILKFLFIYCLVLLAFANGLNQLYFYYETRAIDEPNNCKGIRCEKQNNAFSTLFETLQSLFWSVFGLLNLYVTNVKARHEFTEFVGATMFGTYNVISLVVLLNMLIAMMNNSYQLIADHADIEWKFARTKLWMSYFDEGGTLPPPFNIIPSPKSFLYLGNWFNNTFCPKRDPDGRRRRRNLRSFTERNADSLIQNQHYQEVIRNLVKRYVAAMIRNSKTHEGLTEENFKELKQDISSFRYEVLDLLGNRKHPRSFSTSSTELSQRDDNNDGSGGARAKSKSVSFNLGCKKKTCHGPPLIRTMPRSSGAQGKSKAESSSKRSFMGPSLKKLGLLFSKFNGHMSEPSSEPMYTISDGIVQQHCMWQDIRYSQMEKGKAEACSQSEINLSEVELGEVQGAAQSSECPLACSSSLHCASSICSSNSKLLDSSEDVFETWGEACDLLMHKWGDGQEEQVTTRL
# [3] = biological target: hERG (Homo sapiens, UniProt Q12809); type: cell-based; parameters: purchased ICE Bioscience ICESTP SafetyOne44 Panel
# [4] = biological target: T3, NR1/NR2B (Homo sapiens, UniProt Q05586+Q13224); assay: SafetyOne44 panel ion channels: NR1/NR2B; type: cell-based; settings: NR1/NR2B, 5 μmol/L
# T3 construct: ICE Bioscience ICESTP SafetyOne44 Panel
# [5] = in vivo; settings: male, C57BL/6, mouse, B/P
# [6] = system: C57BL/6 mice; assay: Tail suspension test (TST); type: in vivo
# [7] = system: C57BL/6J mice; assay: m-CPP-induced anxiety model, elevated plus maze; type: in vivo; settings: 10 mg/kg p.o.
# [8] = biological target: T4, 5-HT3A (Homo sapiens, UniProt P46098); type: cell-based
# T4 construct: ICE Bioscience ICESTP SafetyOne44 Panel
# [9] = biological target: T5, TRPC5 F576A (Homo sapiens, UniProt Q9UL62, F576A); assay: Inhibition of TRPC5 mutant F576A; type: cell-based; settings: TRPC5 F576A vs wild type
# T5 construct: full-length wild-type or mutant TRPC5 was cloned into a pcDNA3.1 vector; expressed in transfected cells; host or cells: HEK293T
# [10] = biological target: T6, IKs (Homo sapiens, UniProt P51787); assay: SafetyOne44 panel ion channels: IKs; type: cell-based; settings: 5 μmol/L
# T6 construct: ICE Bioscience ICESTP SafetyOne44 Panel
# [11] = system: C57BL/6 mice; assay: Forced swim test (FST); type: in vivo; settings: 0.3 or 3 mg/kg p.o., 14 days
# [12] = system: GABAA; type: cell-based
# [13] = in vivo; settings: male, C57BL/6, mouse; for Vd: C57BL/6, 2 mpk
# [14] = biological target: T7, μOR (Homo sapiens, UniProt P35372); assay: cell-based; settings: antagonist mode, 10 μmol/L, read-out: Antagonist JDIC-127 @10 μmol/L
# T7 construct: purchased ICE Bioscience ICESTP™ SafetyOne44 Panel
# [15] = biological target: T8, GR (Homo sapiens, UniProt P04150); assay: SafetyOne44 panel: GR; type: cell-based
# T8 construct: purchased ICE Bioscience ICESTP™ SafetyOne44 Panel
# [16] = biological target: T9, D2 (Homo sapiens, UniProt P14416); assay: cell-based; type: cell-based
# T9 construct: purchased ICE Bioscience ICESTP™ SafetyOne44 Panel
# [17] = biological target: T10, MAO A (Homo sapiens, UniProt P21397); assay: SafetyOne44 panel: MAO A; type: biochemical; settings: 10 μmol/L, read-out: Antagonist JDIC-127 @10 μmol/L
# T10 construct: purchased ICE Bioscience ICESTP™ SafetyOne44 Panel
# [18] = not given; remark: listed apart in the source
# T3 sequence (Q13224 27-1484, other chains not shown): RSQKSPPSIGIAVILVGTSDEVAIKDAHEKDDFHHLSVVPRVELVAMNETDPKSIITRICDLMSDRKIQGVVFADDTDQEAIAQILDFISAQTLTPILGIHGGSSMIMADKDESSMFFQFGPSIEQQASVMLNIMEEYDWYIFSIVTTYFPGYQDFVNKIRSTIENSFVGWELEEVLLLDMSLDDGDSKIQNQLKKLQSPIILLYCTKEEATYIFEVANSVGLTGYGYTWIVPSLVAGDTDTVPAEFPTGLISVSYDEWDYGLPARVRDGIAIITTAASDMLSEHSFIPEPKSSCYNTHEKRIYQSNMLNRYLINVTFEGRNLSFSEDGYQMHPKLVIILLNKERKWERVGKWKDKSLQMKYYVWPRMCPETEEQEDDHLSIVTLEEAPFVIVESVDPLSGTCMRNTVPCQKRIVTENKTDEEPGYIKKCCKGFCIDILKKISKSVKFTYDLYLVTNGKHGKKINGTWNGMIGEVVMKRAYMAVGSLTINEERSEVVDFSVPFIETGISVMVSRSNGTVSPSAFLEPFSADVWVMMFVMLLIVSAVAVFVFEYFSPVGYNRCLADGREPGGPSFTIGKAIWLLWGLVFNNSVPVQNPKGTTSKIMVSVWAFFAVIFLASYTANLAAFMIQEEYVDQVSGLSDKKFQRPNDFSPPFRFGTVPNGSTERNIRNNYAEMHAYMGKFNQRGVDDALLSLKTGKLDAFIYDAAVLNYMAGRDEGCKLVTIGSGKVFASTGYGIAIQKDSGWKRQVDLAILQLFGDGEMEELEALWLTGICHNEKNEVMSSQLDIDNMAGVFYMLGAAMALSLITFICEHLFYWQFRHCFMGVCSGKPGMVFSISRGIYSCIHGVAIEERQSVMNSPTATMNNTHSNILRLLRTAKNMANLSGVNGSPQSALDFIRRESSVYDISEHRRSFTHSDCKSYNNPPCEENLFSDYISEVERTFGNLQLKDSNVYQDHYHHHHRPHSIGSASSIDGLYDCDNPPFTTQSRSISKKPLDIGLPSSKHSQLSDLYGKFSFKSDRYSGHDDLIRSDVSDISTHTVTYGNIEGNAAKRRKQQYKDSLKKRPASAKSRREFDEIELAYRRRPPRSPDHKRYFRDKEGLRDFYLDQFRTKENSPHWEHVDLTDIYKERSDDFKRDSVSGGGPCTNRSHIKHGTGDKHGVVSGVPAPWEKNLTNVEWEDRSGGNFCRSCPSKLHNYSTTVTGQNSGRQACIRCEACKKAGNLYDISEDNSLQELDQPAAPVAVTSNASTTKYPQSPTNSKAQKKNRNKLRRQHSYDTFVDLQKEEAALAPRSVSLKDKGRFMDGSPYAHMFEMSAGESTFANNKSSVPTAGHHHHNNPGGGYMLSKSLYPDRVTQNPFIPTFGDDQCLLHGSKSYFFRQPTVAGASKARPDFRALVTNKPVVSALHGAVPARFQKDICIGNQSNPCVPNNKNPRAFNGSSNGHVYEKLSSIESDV
# T4 sequence (P46098 24-478, species assumed): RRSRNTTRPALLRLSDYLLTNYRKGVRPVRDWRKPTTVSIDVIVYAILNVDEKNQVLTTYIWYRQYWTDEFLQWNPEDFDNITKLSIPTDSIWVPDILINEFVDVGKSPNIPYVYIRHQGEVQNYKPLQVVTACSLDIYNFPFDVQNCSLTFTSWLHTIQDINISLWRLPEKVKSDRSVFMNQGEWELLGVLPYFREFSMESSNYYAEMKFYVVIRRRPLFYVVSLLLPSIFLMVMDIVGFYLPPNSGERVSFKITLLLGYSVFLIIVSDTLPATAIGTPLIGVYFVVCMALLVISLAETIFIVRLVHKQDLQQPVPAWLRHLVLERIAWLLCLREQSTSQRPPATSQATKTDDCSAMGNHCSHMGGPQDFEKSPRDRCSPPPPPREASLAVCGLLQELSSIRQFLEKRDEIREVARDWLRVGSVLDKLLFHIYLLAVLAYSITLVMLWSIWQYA
# T9 sequence (P14416 whole entry): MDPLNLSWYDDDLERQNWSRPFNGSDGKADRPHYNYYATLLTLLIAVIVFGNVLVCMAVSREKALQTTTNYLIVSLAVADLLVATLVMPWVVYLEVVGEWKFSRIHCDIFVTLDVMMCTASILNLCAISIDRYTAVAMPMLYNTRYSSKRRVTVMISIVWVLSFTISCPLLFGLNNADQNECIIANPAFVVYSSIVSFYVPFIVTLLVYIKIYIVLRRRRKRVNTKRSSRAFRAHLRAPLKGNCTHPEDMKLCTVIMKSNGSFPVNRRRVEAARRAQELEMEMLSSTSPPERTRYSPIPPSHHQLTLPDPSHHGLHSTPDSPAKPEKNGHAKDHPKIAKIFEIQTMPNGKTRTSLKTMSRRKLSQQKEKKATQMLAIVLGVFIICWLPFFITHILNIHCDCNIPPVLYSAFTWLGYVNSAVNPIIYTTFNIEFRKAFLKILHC
# T8 sequence (P04150 whole entry): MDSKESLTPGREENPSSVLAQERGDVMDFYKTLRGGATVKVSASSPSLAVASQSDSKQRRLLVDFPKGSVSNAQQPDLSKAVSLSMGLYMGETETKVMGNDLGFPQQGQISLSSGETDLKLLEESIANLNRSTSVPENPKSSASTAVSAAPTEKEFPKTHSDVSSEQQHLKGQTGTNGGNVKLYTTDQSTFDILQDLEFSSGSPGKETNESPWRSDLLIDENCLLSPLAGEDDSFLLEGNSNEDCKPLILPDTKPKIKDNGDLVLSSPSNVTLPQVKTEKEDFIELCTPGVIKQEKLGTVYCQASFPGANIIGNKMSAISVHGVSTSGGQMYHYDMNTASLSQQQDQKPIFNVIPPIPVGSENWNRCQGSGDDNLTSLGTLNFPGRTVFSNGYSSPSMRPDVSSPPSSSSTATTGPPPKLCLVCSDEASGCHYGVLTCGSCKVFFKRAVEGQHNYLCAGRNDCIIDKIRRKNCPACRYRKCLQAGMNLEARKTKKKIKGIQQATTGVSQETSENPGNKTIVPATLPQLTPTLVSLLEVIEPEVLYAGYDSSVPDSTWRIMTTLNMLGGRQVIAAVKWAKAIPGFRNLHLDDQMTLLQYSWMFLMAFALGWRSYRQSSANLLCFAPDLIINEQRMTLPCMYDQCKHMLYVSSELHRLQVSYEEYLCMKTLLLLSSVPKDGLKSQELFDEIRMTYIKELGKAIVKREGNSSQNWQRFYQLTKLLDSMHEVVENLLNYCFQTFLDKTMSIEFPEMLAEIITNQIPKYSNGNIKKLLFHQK
# T1 sequence (P22303 32-614): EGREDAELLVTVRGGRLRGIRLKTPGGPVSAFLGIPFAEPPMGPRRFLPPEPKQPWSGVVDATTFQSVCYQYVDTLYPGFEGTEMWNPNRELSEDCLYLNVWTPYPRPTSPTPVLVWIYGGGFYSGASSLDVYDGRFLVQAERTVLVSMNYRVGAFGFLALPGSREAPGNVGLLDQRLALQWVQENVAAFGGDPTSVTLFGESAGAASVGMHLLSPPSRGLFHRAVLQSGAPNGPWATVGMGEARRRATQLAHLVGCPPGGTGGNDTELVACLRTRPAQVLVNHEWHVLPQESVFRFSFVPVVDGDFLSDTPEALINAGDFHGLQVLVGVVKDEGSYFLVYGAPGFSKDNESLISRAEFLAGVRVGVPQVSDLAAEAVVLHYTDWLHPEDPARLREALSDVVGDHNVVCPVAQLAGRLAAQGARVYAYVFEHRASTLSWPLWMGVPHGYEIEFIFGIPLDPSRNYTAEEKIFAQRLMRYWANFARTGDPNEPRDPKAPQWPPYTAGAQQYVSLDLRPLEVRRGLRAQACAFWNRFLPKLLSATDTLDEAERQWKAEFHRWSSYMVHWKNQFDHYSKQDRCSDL
# T7 sequence (P35372 whole entry): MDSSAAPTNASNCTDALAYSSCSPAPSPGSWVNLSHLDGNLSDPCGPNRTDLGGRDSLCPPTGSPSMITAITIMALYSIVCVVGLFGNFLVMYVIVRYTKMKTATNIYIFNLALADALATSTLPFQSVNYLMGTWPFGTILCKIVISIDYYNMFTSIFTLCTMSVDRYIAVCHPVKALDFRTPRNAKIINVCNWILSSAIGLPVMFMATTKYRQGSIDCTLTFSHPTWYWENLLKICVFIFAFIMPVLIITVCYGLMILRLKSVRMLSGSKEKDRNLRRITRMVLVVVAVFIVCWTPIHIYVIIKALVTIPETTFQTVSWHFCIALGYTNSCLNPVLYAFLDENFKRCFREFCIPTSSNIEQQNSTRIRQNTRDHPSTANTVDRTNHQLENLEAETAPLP
# T6 sequence (P51787 whole entry): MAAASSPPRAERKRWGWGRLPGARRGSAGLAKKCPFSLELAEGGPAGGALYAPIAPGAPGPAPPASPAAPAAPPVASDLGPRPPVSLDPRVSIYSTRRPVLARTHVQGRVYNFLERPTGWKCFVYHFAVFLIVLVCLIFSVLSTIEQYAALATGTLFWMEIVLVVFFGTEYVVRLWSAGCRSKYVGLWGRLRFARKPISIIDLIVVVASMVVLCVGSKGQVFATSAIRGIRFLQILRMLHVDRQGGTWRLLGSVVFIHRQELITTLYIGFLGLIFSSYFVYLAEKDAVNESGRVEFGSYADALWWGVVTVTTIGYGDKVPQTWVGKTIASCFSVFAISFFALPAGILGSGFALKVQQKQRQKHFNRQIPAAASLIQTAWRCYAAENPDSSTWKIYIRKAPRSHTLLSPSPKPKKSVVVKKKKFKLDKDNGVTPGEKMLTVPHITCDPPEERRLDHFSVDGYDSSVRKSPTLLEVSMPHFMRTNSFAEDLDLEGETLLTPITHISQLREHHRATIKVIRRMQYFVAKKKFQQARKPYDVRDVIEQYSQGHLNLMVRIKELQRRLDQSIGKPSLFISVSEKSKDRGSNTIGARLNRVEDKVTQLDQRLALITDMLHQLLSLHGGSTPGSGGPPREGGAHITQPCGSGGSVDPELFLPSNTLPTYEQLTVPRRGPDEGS
structure (smiles),measurement,setting,value
O=c1c2c3nc(n2Cc2ccc(Cl)cc2)Oc2ccc(F)c(c2)OCCCCCCn3c(=O)n1CCCO [JDIC-127],inhibition at 10 µM,[1],0.88%
same,IC50,[2],1.4 pM
same,Antagonist JDIC-127 @5 μmol/L,[3],19.40%
same,Agonist JDIC-127 @ 5 μmol/L,[4]; agonist mode,1.53%
same,Antagonist JDIC-127 @5 μmol/L,[4]; antagonist mode,17.19%
same,Kp,"[5]; iv, 2 mg/kg, 2 min",1.1
same,Kp,"[5]; iv, 2 mg/kg, 45 min",3.85
same,Kp,"[5]; iv, 2 mg/kg, 180 min",7.4
same,Kp,"[5]; po, 10 mg/kg, 2 min",3.48
same,Kp,"[5]; po, 10 mg/kg, 45 min",2.51
same,Kp,"[5]; po, 10 mg/kg, 180 min",0.32
same,efficacy in TST relative to reference drugs,"[6]; 0.3 mg/kg p.o. vs 10 mg/kg desipramine, 3 mg/kg HC-070",comparable efficacy to desipramine and HC-070
same,immobility time in TST,"[6]; 0.3 or 3 mg/kg p.o., 60 min prior to testing",significantly reduced
same,"percentage of entries into the open arms, EPM",[7],significantly increased
same,Agonist JDIC-127 @ 5 μmol/L,[8]; agonist mode,0.39%
same,Antagonist JDIC-127 @5 μmol/L,[8]; antagonist mode,17.73%
same,effect of mutation on inhibitory potency of JDIC-127,[9],significantly diminished
same,Antagonist JDIC-127 @5 μmol/L,[10],22.77%
same,immobility time in FST,[11],significantly reduced
same,Agonist JDIC-127 @ 5 μmol/L,[12]; agonist mode,0.74%
same,Antagonist JDIC-127 @5 μmol/L,[12]; antagonist mode,26.35%
same,bioavailability,[13],7.5%
same,C0,"[13]; iv, 2 mg/kg",1450 ng/mL
same,MRT,"[13]; iv, 2 mg/kg",52.8 min
same,clearance,"[13]; iv, 2 mg/kg",66.8 mL/min/kg
same,half-life,"[13]; iv, 2 mg/kg",59.4 min
same,Vd,"[13]; iv, 2 mg/kg, VSS, i.v.",3.51 L/kg
same,Vd,"[13]; iv, 2 mg/kg, Vd",5.71 L/kg
same,Cmax,"[13]; po, 10 mg/kg",177 ng/mL
same,MRT,"[13]; po, 10 mg/kg",114 min
same,Tmax,"[13]; po, 10 mg/kg",15 min
same,half-life,"[13]; po, 10 mg/kg",84 min
same,Cbr,"i.v., 2 mg/kg, 2 min",407.01 nmol/kg
same,Cpl,"i.v., 2 mg/kg, 2 min",367.10 nmol/L
same,Cbr,"i.v., 2 mg/kg, 45 min",198.65 nmol/kg
same,Cpl,"i.v., 2 mg/kg, 45 min",51.63 nmol/L
same,Cbr,"i.v., 2 mg/kg, 180 min",74.96 nmol/kg
same,Cpl,"i.v., 2 mg/kg, 180 min",10.12 nmol/L
same,Cbr,"p.o., 10 mg/kg, 2 min",22.16 nmol/kg
same,Cpl,"p.o., 10 mg/kg, 2 min",6.36 nmol/L
same,Cbr,"p.o., 10 mg/kg, 45 min",223.33 nmol/kg
same,Cpl,"p.o., 10 mg/kg, 45 min",88.83 nmol/L
same,Cbr,"p.o., 10 mg/kg, 180 min",7.35 nmol/kg
same,Cpl,"p.o., 10 mg/kg, 180 min",22.96 nmol/L
same,inhibition at 10 µM,[14],-16.9%
same,Agonist JDIC-127 @10 μmol/L,[15]; agonist mode,0.05%
same,inhibition at 10 µM,"[15]; antagonist mode, 10 μmol/L, read-out: Antagonist JDIC-127 @10 μmol/L",4.73%
same,Agonist JDIC-127 @10 μmol/L,"[16]; D2, agonist mode",–9.18%
same,inhibition at 10 µM,"[16]; D2, antagonist mode, 10 μmol/L, read-out: Antagonist JDIC-127 @10 μmol/L",-1.55%
same,inhibition at 10 µM,[17],15.5%
same,AUC0–t,"[18]; C57BL/6, 2 mpk, i.v.",496 h∗ng/mL
same,AUC0–∞,"[18]; C57BL/6, 2 mpk, i.v.",499 h∗ng/mL
same,AUC0–t,"[18]; C57BL/6, 10 mpk, p.o.",187 h∗ng/mL
same,AUC0–∞,"[18]; C57BL/6, 10 mpk, p.o.",193 h∗ng/mL
same,CL,"[18]; C57BL/6, 10 mpk, p.o.",865 mL/min/kg
same,Vd,"[18]; C57BL/6, 10 mpk, p.o.",107 L/kg
